The nature of series [1]: in vitro. The settings on record: African green monkey.
In series [2] the target is SARS-CoV-2 nsp14 (N7-methyltransferase activity) (Severe acute respiratory syndrome coronavirus 2, UniProt P0DTD1). In words: Nsp14 RapidFire MS assay. It counts as biochemical. The settings on record: highest tested concentration of 100 µM.
For series [3], the system named is SARS-CoV-2. The settings on record: VeroE6 cells, CC50/EC50.
In series [4] the test system is SARS-CoV-2. The series is described as follows: microbe, parasite or virus in culture. The settings on record: Severe acute respiratory syndrome coronavirus 2, 96 h, read-out: SARS-CoV-2 EC50.
The target of series [5] is SARS-CoV-2 Mpro (Severe acute respiratory syndrome coronavirus 2, UniProt P0DTD1). In words: SARS-CoV-2 main protease (Mpro) FRET assay. Format: biochemical. The settings on record: highest tested concentration of 100 µM. As to the method:
Compounds were tested in a Förster resonance energy transfer (FRET) assay for inhibition of the SARS-CoV-2 Mpro. The peptide Dabcyl-KTSAVLQ↓SGFRKM-E(Edans)-NH2 (Biosyntan, Berlin, Germany) (↓ indicates the cleavage site), corresponding to the P7–P6′ residues of the nsp4–nsp5 processing site of the viral polyprotein pp1a/pp1ab, was used as the substrate. Quenching of the Edans fluorescence by the Dabcyl residue was eliminated after cleavage of the scissile bond between P1-Gln and P1′-Ser and the difference in fluorescence emission was measured with a Tecan Spark fluorescence plate reader, operated at an excitation wavelength of 360 nm and an emission wavelength of 460 nm.
Candidate compounds were kept in a DMSO stock solution; the Mpro was in a buffer containing 20 mM HEPES, 120 mM NaCl, 0.4 mM EDTA, 20% glycerol, pH 7.0. DTT (4 mM) was added to the buffer prior to running the assay. Following incubation of 50 nM SARS-CoV-2 Mpro with 100 µM of the candidate compound for 10 min at 37 °C, the reaction was initiated by the addition of 10 µM of the FRET substrate to each well. The final DMSO concentration was <2%.

The test system of series [6] is MERS-CoV. In words: microbe, parasite or virus in culture. Format: cell-based. The settings on record: Middle East respiratory syndrome-related coronavirus, Huh-7, 42 h, read-out: MERS EC50.
For series [7], the target named is SARS-CoV-2 replication–transcription complex (Severe acute respiratory syndrome coronavirus 2, UniProt P0DTD1). In words: SARS-CoV-2 polymerase assay. It counts as biochemical. The settings on record: highest tested concentration of 100 µM.
Series [8] can be described thus: in vitro. The settings on record: human.
Series [9] has as its system SARS-CoV-2 spike pseudotyped VSV. The series is described as follows: organism not typed. Format: cell-based. The settings on record: Vero C1008, 24 h, read-out: SARS-CoV-2 pseudovirus neutralization EC50 (block of virus entry).
Series [10] concerns the target cathepsin L (Homo sapiens, UniProt P07711). In words: Cathepsin L inhibition. It counts as biochemical. The settings on record: human protease involved in SARS-CoV-2 entry.
For series [11], the target named is cathepsin B (Homo sapiens, UniProt P07858). The series is described as follows: Cathepsin B inhibition. Format: biochemical. The settings on record: human protease involved in SARS-CoV-2 entry.
The subject of series [12] is MERS-CoV spike pseudotyped VSV. In words: organism not typed. The settings on record: Vero C1008, 24 h, read-out: MERS pseudovirus neutralization EC50 (block of virus entry). Format: cell-based.
The test system of series [13] is SARS-CoV-1. In words: microbe, parasite or virus in culture. It counts as cell-based. The settings on record: Severe acute respiratory syndrome coronavirus, Vero C1008, read-out: SARS-CoV-1 EC50.
Series [14] concerns Chikungunya virus. The series is described as follows: Chikungunya virus antiviral assay in Vero A cells. The settings on record: read-out: Chikungunya virus EC50.

Bounds are passed on as bounds.

Sequence of cathepsin L (P07711 114-333): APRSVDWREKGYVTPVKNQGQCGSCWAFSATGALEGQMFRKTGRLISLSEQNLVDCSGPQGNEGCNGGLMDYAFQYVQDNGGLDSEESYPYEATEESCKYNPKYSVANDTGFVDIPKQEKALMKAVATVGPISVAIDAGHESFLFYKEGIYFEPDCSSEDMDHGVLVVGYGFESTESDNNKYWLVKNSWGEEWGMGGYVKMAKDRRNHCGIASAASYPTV

Turning to `c1ccc(CCN2CCC(Oc3ccccc3-c3nc(-c4ccncc4)no3)C2)cc1` (centres unmarked) [Compound 1, 5-(2-((1-Phenethylpyrrolidin-3-yl)oxy)phenyl)-3-(pyridin-4-yl)-1,2,4-oxadiazole], the CC50 is 21 ± 11 µM in series [1] and more than 20 µM in series [8]. The “inhibitory activity on SARS-CoV-2 nsp14 (N7-methyltransferase activity)” value in series [2] was “did not show any inhibitory activity”. The “SI (CC50/EC50)” value in series [3] was determined as 4.5. Also, the EC50 was 4.7 ± 3 µM in series [4]; 5 µM in series [6]; 1.25 µM in series [9]; 3.4 µM in series [12]; 4.2 ± 0.2 µM in series [13]; more than 100 µM in series [14]. The “inhibitory activity on SARS-CoV-2 Mpro” value in [5] is listed as “did not show any inhibitory activity”. The “inhibitory activity on SARS-CoV-2 replication–transcription complex” value in series [7] is reported as “did not show any inhibitory activity”. For the same compound, in [10], the “activity against cathepsin L” value was “inactive”. The “activity against cathepsin B” value in [11] was “inactive”.

One may read the EC50 as the midpoint of the concentration-response curve.

The values above are taken from article PMC8840742 (Molecules, 2022).
